Data from patent publication US4064132A, “Aroyl-substituted phenylacetamide derivatives” (Janssen Pharmaceutica N.V., priority 1976, dated 1977).
Read-outs that look alike come from different tables or passages of the source.

Key:
[1] = test system: acetic acid induced writhing; assay: HOAc (acetic acid) induced writhing test in rats; format: in vivo, female Wistar rats; conditions: for ED50: Rattus norvegicus, po; for Potency Ratio: writhing test, compound A vs compound B
Description: According to the acetic acid induced writhing test, female Wistar rats (body weight 100±5g) are fasted overnight and injected intraperitoneally with 0.5 ml of a 1% acetic acid solution. Rats with at least 10 writhes within the first 10 minutes following the acetic acid injection are selected and treated five minutes later with an oral dose of the compound under investigation or with the vehicle (control). The number of writhes, i.e. the backward extension of the hind limbs, are counted during a 15 minute experimental session 45 to 60 minutes after the oral treatment. A minimum of three rats are used for each dose level tested.

[2] = test system: mycobacterium butyricum induced arthritis; assay: mycobacterium butyricum induced arthritis test in rats; format: in vivo, male Wistar rats; conditions: for minimal effective dose: Rattus norvegicus, po, 336 h, 14 consecutive days; for Potency Ratio: arthritis test, compound A vs compound B
Description: According to the mycobacterium butyricum induced arthritis test, male Wistar rats (body weight 235±15g) are injected intradermally in the tail base with 0.05 ml of an oily suspension of mycobacterium butyricum. The paws and the joint diameters of the hind limbs are measured the day of the injection and a fortnight later. Rats with established arthritis, i.e., significant increase in paw and joint diameters are used for drug testing. Groups of three individually caged animals receive the drug under investigation mixed with the powdered food at different concentrations during 14 consecutive days. After this treatment period, the diameters of the hind limbs are measured again and the effect of drug treatment is evaluated by comparing the final swelling degrees of treated animals with that occurring in untreated controls. The lowest effective dose is that dose whereby a significant decrease of the swelling is observed as compared to untreated control animals.

[3] = drug in food, table 3, read-out: Mycobacterium butyricum test effective dose
[4] = all-or-none basis of less than 15 writhes per animal per session, table 1, read-out: Oral ED50 (lowest effective oral dose expressed as ED50)
[5] = mixed with the powdered food, significant decrease of swelling vs untreated controls, table 2, read-out: Lowest Effective Dose
[6] = table 3, read-out: Writhing test in rats, ED50

CC(C(=O)O)c1ccc(C(=O)c2cccs2)cc1 (single isomer, unassigned; (+)) [p-(2-thenoyl) (+) H H Me H OH, (+)-p-(2-thenoyl)hydratropic acid]
Writhing test in rats; ED50 ([1]; oral, table 3): 0.31 mg/kg | minimal effective dose [2, 3]: ≤ 2.5 mg/kg

CC(C(=O)O)c1ccc(C(=O)c2cccs2)cc1 (single isomer, unassigned; (-)) [p-(2-thenoyl) (-) H H Me H OH, (-)-p-(2-thenoyl)hydratropic acid]
Writhing test in rats; ED50 ([1]; oral, table 3): 5.0 mg/kg

CC(C(=O)O)c1ccc(C(=O)c2cccs2)cc1 (stereo not drawn) [A, p-(2-thenoyl)-α-methyl-phenylacetic acid]
ED50 [1, 4]: 0.08 mg/kg | times more active than compound B (writhing) ([1]; oral): 16 times | Potency Ratio ([1]; table 1): 1 | antagonism of mycobacterium butyricum induced arthritis in rats (in words) [2]: powerful antagonist of mycobacterium butyricum induced arthritis in rats | minimal effective dose [2, 5]: 0.63 mg/kg | Potency Ratio ([2]; table 2): 1 | times more active than compound B (arthritis) ([2]; drug in food, 14 days): at least 16 times

CC(C(=O)O)c1ccc(C(=O)c2ccccc2)cc1 (stereo not drawn) [B, p-benzoyl-α-methylphenylacetic acid, reference compound]
ED50 [1, 4]: 1.25 mg/kg | Potency Ratio ([1]; table 1): 1/16 | minimal effective dose [2, 5]: 10 mg/kg | Potency Ratio ([2]; table 2): 1/16

CC(C(=O)O)c1cccc(C(=O)c2cccs2)c1 (centres unmarked) [m-(2-thenoyl) H H Me H OH, m-(2-thenoyl)hydratropic acid]
ED50 [1, 6]: 1.25 mg/kg

Cc1c(CC(=O)O)cccc1C(=O)c1cccs1 [m-(2-thenoyl) H Me H H OH, 2-[3-(2-thenoyl)-o-tolyl]acetic acid]
ED50 [1, 6]: 10 mg/kg | minimal effective dose [2, 3]: 1.25 mg/kg

CC(C(=O)O)c1ccc(C(=O)c2ccc3ccccc3c2)cc1 (centres unmarked) [p-(2-naphtoyl) H H Me H OH, p-(2-naphthoyl)hydratropic acid]
ED50 [1, 6]: 1.25 mg/kg | minimal effective dose [2, 3]: 10 mg/kg

CC(C(=O)O)c1ccc(C(=O)c2cccs2)c(Cl)c1 (centres unmarked) [p-(2-thenoyl) Cl H Me H OH, 3-chloro-4-(2-thenoyl)hydratropic acid]
ED50 [1, 6]: 1.25 mg/kg | minimal effective dose [2, 3]: 1.25 mg/kg

CCC(C(=O)O)c1ccc(C(=O)c2cccs2)cc1 (centres unmarked) [p-(2-thenoyl) H H Et H OH, 2-[p-(2-thenoyl)phenyl]butyric acid]
ED50 [1, 6]: 0.63 mg/kg

CC(C(=O)NO)c1ccc(C(=O)c2cccs2)cc1 (centres unmarked) [p-(2-thenoyl) H H Me H NHOH, p-(2-thenoyl)hydratropohydroxamic acid]
ED50 [1, 6]: 1.25 mg/kg

CCN(CC)CCOC(=O)C(C)c1ccc(C(=O)c2cccs2)cc1.Cl (centres unmarked) [p-(2-thenoyl) H H Me H O(CH2)2N(Et)2, 2-(diethylamino)ethyl p-(2-thenoyl)hydratropate hydrochloride]
ED50 [1, 6]: 0.04 mg/kg | minimal effective dose [2, 3]: 2.5 mg/kg

CC(C(=O)OCCN(C)C)c1ccc(C(=O)c2cccs2)cc1.O=C(O)C(=O)O (centres unmarked) [p-(2-thenoyl) H H Me H O(CH2)2N(Me)2, 2-(dimethylamino)ethyl p-(2-thenoyl)hydratropate oxalate]
ED50 [1, 6]: 0.08 mg/kg | minimal effective dose [2, 3]: 2.5 mg/kg

CC(C(=O)OCCCN(C)C)c1ccc(C(=O)c2cccs2)cc1.O=C(O)C(=O)O (centres unmarked) [p-(2-thenoyl) H H Me H O(CH2)3N(Me)2, 3-(dimethylamino)propylp-(2-thenoyl)hydratropate oxalate]
ED50 [1, 6]: 0.16 mg/kg | minimal effective dose [2, 3]: 2.5 mg/kg

CCOC(=O)C(C)c1ccc(C(=O)c2cccs2)cc1 (centres unmarked) [p-(2-thenoyl) H H Me H OEt, ethyl p-(2-thenoyl)hydratropate]
ED50 [1, 6]: 0.31 mg/kg

CCCCCCCCOC(=O)C(C)c1ccc(C(=O)c2cccs2)cc1 (centres unmarked) [p-(2-thenoyl) H H Me H OOct, octyl p-(2-thenoyl)hydratropate]
ED50 [1, 6]: 0.63 mg/kg

COc1ccc(NC(=O)C(C)c2ccc(C(=O)c3cccs3)cc2)cc1 (centres unmarked) [p-(2-thenoyl) H H Me H drawing 30]
ED50 [1, 6]: 10 mg/kg | minimal effective dose [2, 3]: < 10 mg/kg

CC(C(=O)NC1=NCCS1)c1ccc(C(=O)c2cccs2)cc1 (centres unmarked) [p-(2-thenoyl) H H Me H drawing 31]
ED50 [1, 6]: 2.5 mg/kg | minimal effective dose [2, 3]: 10 mg/kg

CC(C)(C(=O)O)c1ccc(C(=O)c2cccs2)cc1 [p-(2-thenoyl) H H Me Me OH, α-methyl-p-(2-thenoyl)hydratropic acid]
ED50 [1, 6]: 0.31 mg/kg | minimal effective dose [2, 3]: < 10 mg/kg

C=CCC(C(=O)O)c1ccc(C(=O)c2cccs2)cc1 (centres unmarked) [p-(2-thenoyl) H H allyl H OH, 2-[p-(2-thenoyl)phenyl]-4-pentenoic acid]
ED50 [1, 6]: 1.25 mg/kg | minimal effective dose [2, 3]: 10 mg/kg

Cc1cc(C(C)C(=O)O)ccc1C(=O)c1cccs1 (centres unmarked) [p-(2-thenoyl) Me H Me H OH, 3-methyl-4-(2-thenoyl)hydratropic acid]
ED50 [1, 6]: 5 mg/kg | minimal effective dose [2, 3]: 10 mg/kg

CC(C(=O)O)c1ccc(C(=O)c2cccnc2)cc1.Cl (centres unmarked) [p-(3-pyridylcarbonyl) H H Me H OH, p-(3-pyridylcarbonyl)hydratropic acid hydrochloride]
ED50 [1, 6]: 2.5 mg/kg | minimal effective dose [2, 3]: 2.5 mg/kg

Cc1ccc(C(=O)c2ccc(C(C)C(=O)O)cc2)s1 (centres unmarked) [p-(5-Me-2-thenoyl) H H Me H OH, p-(5-methyl-2-thenoyl)hydratropic acid]
ED50 [1, 6]: 1.25 mg/kg | minimal effective dose [2, 3]: 5 mg/kg

CC(C(=O)O)c1ccc(C(=O)c2ccc(Cl)s2)cc1 (centres unmarked) [p-(5-chloro-2-thenoyl) H H Me H OH, p-(5-chloro-2-thenoyl)hydratropic acid]
ED50 [1, 6]: 0.63 mg/kg | minimal effective dose [2, 3]: 5 mg/kg
